{"source": "patent US6747021B2", "about": "“Cryptophycin compound” (Eli Lilly and Company, priority 2000, dated 2004)", "key": {"[1]": {"test": "Toxicity relative to other cryptophycins (general statement)", "details": "compared with other cryptophycins; no test described"}, "[2]": {"tested_on": "MAMMARY ADENOCARCINOMA 16/C", "type": "in vivo, murine", "details": "C3H/HeN female mice", "description": "(§1) Inhibition of tumors transplanted into mice is an accepted procedure for studying the efficacy of antitumor agents (Corbett, et al., In vivo Methods for Screening and Preclinical Testing; Use of rodent solid tumors for drug discovery., In: Anticancer Drug Development Guide: Preclinical Screening, Clinical Trials, and Approval, B. Teicher (ed), Humana Press Inc., Totowa, N.J., Chapter 5, pages 75-99 (1997); (Corbett, et al., Int. J. Pharmacog., 33, Supplement, 102-122 (1995)). Murine tumors or human xenographs were implanted essentially as described by Corbett in In vivo Methods for Screening and Preclinical Testing; Use of rodent solid tumors for drug discovery. Briefly, the murine tumor or human xenograph was implanted subcutaneously using either 12-gauge trocar implants or counted number of cells. The location for the trocar insertion is midway between the axillary and inguinal region along the side of the mouse. The trocar is slipped approximately ¾ of an inch subcutaneously up toward the axilla before discharging the tumor fragment, and pinching the skin as the trocar is removed. Alternatively, human tumor cells prepared from a […] of donor tumors (5×10^6 cells) were implanted subcutaneously in a hind-leg of a male or female nude mouse (Charles River). Either a test compound in vehicle or vehicle alone was administered by intravenous bolus injection (iv), intraperitoneal injection (ip), or oral gavage (po). Each treatment group, as well as a group of untreated control animals, consisted of five animals per group in each experiment. Subcutaneous tumor response was monitored by tumor volume measurement performed twice each week over the course of the experiment (60-120 days). Body weights were taken as a general measure of toxicity. The subcutaneous tumor data were analyzed by determining the median tumor weight for each treatment group over the course of the experiment and calculating the tumor growth delay as the difference in days for the treatment versus the control tumors to reach a volume of either 500 or 1000 mm^3.\n(§2) Cryptophycin-309 (309) was tested against a variety of murine and human tumors substantially as described supra. Cryptophycin-55 glycinate (55-GLY), Taxol, and Adriamycin (Adria) were also included in certain tests for purposes of comparison. Cryptophycin 55 glycinate is known in the art (WO 98/08505, Example 9) and has the following structure: [drawing 9]\n(§3) Tumor Weight(mg)=(a×b^2)/2 where a=tumor length (mm) and b=tumor width (mm).\n(§4) Tumor Growth Delay=T−C where T is the median time (days) required for the treatment group tumors to reach a predetermined size, and C is the median time (days) for the control group tumors to reach the same size. Tumor-free survivors are excluded from this calculation, and are tabulated separately (Tumor Free).\n(§5) Log Kill=Tumor Growth Delay/(3.32)(Td)\n(§6) where Tumor Growth Delay is as previously defined and Td is tumor volume doubling time (days), estimated from the best fit straight line from a log-linear growth plot of the control group of tumors in exponential growth (100-800 mg range)\n(§7) %T/C mass—The treatment and control groups are measured when the control group tumors reach approximately 700 to 1200 mg in size (median group). The median tumor weight of each group is determined (including zeros). The T/C value in percent is an indication of antitumor effectiveness. A T/C≦42% is considered significant antitumor activity. A T/C<10% is considered to indicate highly significant antitumor activity.\n(§8) Body Weight Loss Nadir—A body weight loss nadir (mean of group) of greater than 20% or drug deaths greater than 20% are considered to indicate an excessively toxic dosage in single course trials.\n(§9) Activity Rating—the Activity Rating is derived from the Log Kill according to the following table: […]"}, "[3]": {"tested_on": "MAMMARY ADENOCARCINOMA-17/ADR/Resist.", "type": "in vivo, murine", "details": "IV 30 mg/kg/inj days 1,3,5,7,9; total dose 150 mg/kg; C3H female mice", "description": "as §1, §2, §3, §4, §5, §6, §7, §8, §9"}, "[4]": {"tested_on": "PANCREATIC DUCTAL ADENOCARCINOMA #02", "type": "in vivo, murine", "details": "BDF1 female mice", "description": "as §1, §2, §3, §4, §5, §6, §7, §8, §9"}, "[5]": {"details": "IV 20 mg/kg/inj days 3,5,7,9,11, total dose 100 mg/kg"}, "[6]": {"details": "IV 30 mg/kg/inj days 3,5,7,9,11, total dose 150 mg/kg"}, "[7]": {"details": "IV 20 mg/kg/inj days 1,3,5,7,9, total dose 100 mg/kg, experiment #"}, "[8]": {"details": "IV 30 mg/kg/inj days 1,3,5,7,9, total dose 150 mg/kg, experiment #"}, "[9]": {"details": "IV 33 mg/kg/inj days 1,3,5,7,9, total dose 165 mg/kg, experiment ##"}}, "note": "Like-named read-outs stand apart in the source and are kept apart here."}
{"smiles": "COc1ccc(C[C@H]2NC(=O)/C=C/C[C@@H]([C@H](C)[C@@H](OC(=O)CN)[C@@H](Cl)c3ccccc3)OC(=O)[C@H](CC(C)(C)C)OC(=O)[C@H](C)CNC2=O)cc1Cl", "note": "[Cryptophycin 309, Cryptophycin-309]", "values": [{"measurement": "toxicity", "setting": "[1]", "result": "lower toxicity than other cryptophycins"}, {"measurement": "% T/C MASS", "setting": "[2]; [5]", "result": 0, "unit": "%"}, {"measurement": "ACTIVITY RATING", "setting": "[2]; [5]", "result": "++++ (>2.8)"}, {"measurement": "DRUG DEATHS", "setting": "[2]; [5]", "result": "0/5"}, {"measurement": "GROWTH DELAY", "setting": "[2]; [5]", "result": 17, "unit": "days"}, {"measurement": "LOG KILL", "setting": "[2]; [5]", "result": 3.9}, {"measurement": "MEDIAN TUMOR WEIGHT", "setting": "[2]; [5]", "result": 0, "unit": "mg"}, {"measurement": "% T/C MASS", "setting": "[2]; [6]", "result": 0, "unit": "%"}, {"measurement": "ACTIVITY RATING", "setting": "[2]; [6]", "result": "++++ (>2.8)"}, {"measurement": "DRUG DEATHS", "setting": "[2]; [6]", "result": "0/5"}, {"measurement": "GROWTH DELAY", "setting": "[2]; [6]", "result": 16.5, "unit": "days"}, {"measurement": "LOG KILL", "setting": "[2]; [6]", "result": 3.8}, {"measurement": "MEDIAN TUMOR WEIGHT", "setting": "[2]; [6]", "result": 0, "unit": "mg"}, {"measurement": "% T/C MASS", "setting": "[3]", "result": 0, "unit": "%"}, {"measurement": "ACTIVITY RATING", "setting": "[3]", "result": "++++ (>2.8)"}, {"measurement": "DRUG DEATHS", "setting": "[3]", "result": "0/5"}, {"measurement": "GROWTH DELAY", "setting": "[3]", "result": 10.75, "unit": "days"}, {"measurement": "LOG KILL", "setting": "[3]", "result": 3.23}, {"measurement": "MEDIAN TUMOR WEIGHT", "setting": "[3]", "result": 0, "unit": "mg"}, {"measurement": "% T/C MASS", "setting": "[4]; [7]", "result": 3.8, "unit": "%"}, {"measurement": "ACTIVITY RATING", "setting": "[4]; [7]", "result": "++ (1.3-1.9)"}, {"measurement": "DRUG DEATHS", "setting": "[4]; [7]", "result": "0/5"}, {"measurement": "GROWTH DELAY", "setting": "[4]; [7]", "result": 13, "unit": "days"}, {"measurement": "LOG KILL", "setting": "[4]; [7]", "result": 1.7}, {"measurement": "MEDIAN TUMOR WEIGHT", "setting": "[4]; [7]", "result": 63, "unit": "mg"}, {"measurement": "% T/C MASS", "setting": "[4]; [8]", "result": 3.8, "unit": "%"}, {"measurement": "ACTIVITY RATING", "setting": "[4]; [8]", "result": "++ (1.3-1.9)"}, {"measurement": "DRUG DEATHS", "setting": "[4]; [8]", "result": "0/5"}, {"measurement": "GROWTH DELAY", "setting": "[4]; [8]", "result": 13, "unit": "days"}, {"measurement": "LOG KILL", "setting": "[4]; [8]", "result": 1.7}, {"measurement": "MEDIAN TUMOR WEIGHT", "setting": "[4]; [8]", "result": 64, "unit": "mg"}, {"measurement": "% T/C MASS", "setting": "[4]; [9]", "result": 0, "unit": "%"}, {"measurement": "ACTIVITY RATING", "setting": "[4]; [9]", "result": "+++ (2.0-2.8)"}, {"measurement": "DRUG DEATHS", "setting": "[4]; [9]", "result": "0/5"}, {"measurement": "GROWTH DELAY", "setting": "[4]; [9]", "result": 15.25, "unit": "days"}, {"measurement": "LOG KILL", "setting": "[4]; [9]", "result": 2.7}, {"measurement": "MEDIAN TUMOR WEIGHT", "setting": "[4]; [9]", "result": 0, "unit": "mg"}]}
